# Patent publication US7332602B2, “Pyridyl substituted heterocycles useful for treating or preventing HCV infection” (Rigel Pharmaceuticals, Inc., priority 2002, dated 2008)
# Read-outs that look alike come from different tables or passages of the source.
# How the values were obtained:
# [1] = cytotoxicity assay (Cell Titer Glo); type: cell-based; settings: human; 48 hr with compound, ATP-dependent Cell Titer Glo; read-out: IC50 (cytotoxicity, number of viable cells)
# Experimental: Compounds 1, 3, 7, 9, 11, 13, 17, 19, 21, 27, 29, 31, 33, 35, 37, 39, 47, 49, 51, 57 and 69 were tested in a cytotoxicity assay with liver cells including an HCV replicon (5-2 Luc cells, 9-13 cells or Huh-7 cells). In the assay, cells were seeded onto 96-well plates (approx. 7500 cells/well in a volume of 90 μl) and grown for 24 hr at 37° C. On day 2, various concentrations of test compound (in a volume of 10 μl) were added to the wells and the cells were grown for an additional 48 hr at 37° C. On day 4, an ATP-dependent R-Luciferase assay (Cell Titer Glo assay) was performed to determine the number of viable cells.
# [2] = system: HCV proteins (HCV replication); assay: quantitative Western blot analysis with antibodies specific for certain HCV proteins; type: cell-based, Hepatitis C virus; settings: Hepatitis C virus, read-out: Western (IC50, 50% reduction in the amount of the specified HCV protein)
# Experimental: Certain exemplary compounds of the invention were also tested for their ability to inhibit HCV replication using a quantitative Western blot analysis with antibodies specific for certain HCV proteins. In this assay, the amount of test compound that yielded a 50% reduction in the amount of the specified HCV protein as compared to a control sample (IC50) was determined.
# [3] = system: HCV replicon (5-2 Luc replicon-comprising cells); assay: HCV replicon assay (luciferase reporter); type: cell-based, Hepatitis C virus; settings: Hepatitis C virus, read-out: Replicon (IC50, 50% reduction in luciferase emission)
# Experimental: The inhibitory activity of certain exemplary compounds of the invention was confirmed using an HCV replicon assay. The HCV replicon can include such features as the HCV IRES, the HCV 3′ untranslated region, selected HCV genes encoding HCV polypeptides, selectable markers, and a reporter gene such as luciferase, GEP, etc. In the assay, actively dividing 5-2 Luc replicon-comprising cells were seeded at a density of between about 5,000 and 7,500 cells/well onto 96 well plates (about 90 μl of cells per well) and incubated at 37° C. and 5% CO2 for 24 hours. Then, the test compound (in a volume of about 10 μl) was added at various concentrations to each well and the cells were incubated for an additional 24 hours before luciferase assay. The cells were harvested, and HCV replication or translation was monitored via a reporter assay, e.g., a luciferase reporter assay. The media was aspirated from each cell and Bright-Glo ([…].) luciferase assay reagents were added to each well according to the manufacturer's instructions. In this assay, the amount of test compound that yielded a 50% reduction in luciferase emission (IC50) was determined.
# [4] = second symbol of the Replicon/Western cell
# [5] = first symbol of the Replicon/Western cell, 5-2 Luc replicon cells, 24 hours with compound
Compound,IC50 at 48 h [1] [µM],IC50 [2] [µM],IC50 ([3]; 24 h) [µM],"IC50 [2, 4] [µM]","IC50 [3, 5] [µM]"
"O=C(Nc1ccnc(-c2cc(-c3c(Cl)cccc3Cl)no2)c1)C(Cl)Cl [Compound 9, 2,2-Dichloro-N-[2-[3-(2,6-dichlorophenyl)-5-isoxazolyl]-(4-pyridyl)] Acetamide]",≥ 10,< 10,< 10,,
"O=C(Nc1cncc(-c2cc(-c3c(F)cccc3Cl)no2)c1)C(Cl)Cl [Compound 13, 2,2-Dichloro-N-[5-[3-(2-chloro-6-fluorophenyl)-5-isoxazolyl]-(3-pyridyl)] Acetamide]",3,,,< 10,< 10
"COc1cccc(F)c1-c1cc(-c2cncc(NC(=O)C(Cl)Cl)c2)on1 [Compound 17, 272-Dichloro-N-[5-[3-(2-fluoro-6-methoxyphenyl)-5-isoxazolyl]-(3-pyridyl)] Acetamide]",≥ 10,,,< 10,< 10
"Cc1cccc(C)c1-c1cc(-c2cncc(NC(=O)C(Cl)Cl)c2)on1 [Compound 21, 2,2-Dichloro-N-[5-[3-(2,6-dimethylphenyl)-5-isoxazolyl]-(3-pyridyl)] Acetamide]",≥ 10,,,> 10,< 10
"O=C(Nc1cncc(-c2cc(-c3c(F)cccc3F)no2)c1)C(Cl)Cl [Compound 27, 2,2-Dichloro-N-[5-[3-(2,6-difluorophenyl)-5-isoxazolyl]-(3-pyridyl)] Acetamide]",≥ 10,,,< 10,< 10
"COc1cccc(C(F)(F)F)c1-c1cc(-c2cc(NC(=O)C(Cl)Cl)ccn2)on1 [Compound 49, 2,2-Dichloro-N-[2-[3-(2-methoxy-6-trifluoromethylphenyl)-5-isoxazolyl]-(4-pyridyl)] Acetamide]",≥ 10,,,< 10,< 10
"COc1cccc(C(F)(F)F)c1-c1cc(-c2cncc(NC(=O)C(Cl)Cl)c2)on1 [Compound 57, 2,2-Dichloro-N-[5-[3-(2-methoxy-6-trifluoromethylphenyl)-5-isoxazolyl]-(3-pyridyl)] Acetamide]",> 5,,,< 10,< 10
